{
  "source": "paper PMC8989888",
  "about": "“Development of optimized drug-like small molecule inhibitors of the SARS-CoV-2 3CL protease for treatment of COVID-19” (Nature Communications, 2022)",
  "key": {"SARS-CoV-2 3CL protease [1]": {"target": "T1, SARS-CoV-2 3CL protease (Severe acute respiratory syndrome coronavirus 2, UniProt P0DTD1)", "assay": "biochemical", "settings": "for IC50: read-out: SARS-CoV-2 3CLpro IC50"}, "SARS-CoV-2 3CL protease [2]": {"target": "T1, SARS-CoV-2 3CL protease", "assay": "biochemical"}, "ACE1": {"target": "ACE1 (Homo sapiens, UniProt P12821)", "sequence (P12821 30-1261)": "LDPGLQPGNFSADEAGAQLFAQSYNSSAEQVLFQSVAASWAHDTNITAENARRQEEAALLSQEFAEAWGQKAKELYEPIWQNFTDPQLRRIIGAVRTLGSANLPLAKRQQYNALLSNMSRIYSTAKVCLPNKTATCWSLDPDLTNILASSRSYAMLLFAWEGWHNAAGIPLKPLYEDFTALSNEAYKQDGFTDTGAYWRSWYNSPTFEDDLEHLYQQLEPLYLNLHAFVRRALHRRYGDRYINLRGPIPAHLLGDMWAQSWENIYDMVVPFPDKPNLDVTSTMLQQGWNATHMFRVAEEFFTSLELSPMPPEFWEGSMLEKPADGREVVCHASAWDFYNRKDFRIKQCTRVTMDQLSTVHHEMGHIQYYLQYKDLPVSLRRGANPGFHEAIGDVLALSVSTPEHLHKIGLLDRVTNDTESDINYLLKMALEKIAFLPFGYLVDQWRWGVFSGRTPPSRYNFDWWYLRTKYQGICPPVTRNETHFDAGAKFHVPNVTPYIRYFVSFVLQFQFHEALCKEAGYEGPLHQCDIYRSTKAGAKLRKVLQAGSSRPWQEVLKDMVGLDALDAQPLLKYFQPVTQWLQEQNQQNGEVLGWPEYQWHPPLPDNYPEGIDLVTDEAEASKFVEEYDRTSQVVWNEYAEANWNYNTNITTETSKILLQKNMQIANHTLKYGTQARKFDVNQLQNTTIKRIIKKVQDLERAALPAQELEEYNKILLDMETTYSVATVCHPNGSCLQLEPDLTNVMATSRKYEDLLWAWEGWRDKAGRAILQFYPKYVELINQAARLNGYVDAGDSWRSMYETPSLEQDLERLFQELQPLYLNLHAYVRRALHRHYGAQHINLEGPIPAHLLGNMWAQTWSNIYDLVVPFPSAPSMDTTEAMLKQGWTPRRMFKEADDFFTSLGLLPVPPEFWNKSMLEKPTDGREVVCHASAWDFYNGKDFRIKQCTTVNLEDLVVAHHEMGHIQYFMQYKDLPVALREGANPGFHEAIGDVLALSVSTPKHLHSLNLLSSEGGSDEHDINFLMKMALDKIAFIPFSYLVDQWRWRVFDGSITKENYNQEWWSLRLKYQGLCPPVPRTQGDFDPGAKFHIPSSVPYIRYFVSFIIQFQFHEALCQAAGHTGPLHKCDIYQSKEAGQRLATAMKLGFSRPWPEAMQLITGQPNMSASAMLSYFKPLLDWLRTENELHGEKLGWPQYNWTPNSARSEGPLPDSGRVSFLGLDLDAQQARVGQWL", "assay": "biochemical"}, "ACE2": {"target": "ACE2 (Homo sapiens, UniProt Q9BYF1)", "sequence (Q9BYF1 18-740)": "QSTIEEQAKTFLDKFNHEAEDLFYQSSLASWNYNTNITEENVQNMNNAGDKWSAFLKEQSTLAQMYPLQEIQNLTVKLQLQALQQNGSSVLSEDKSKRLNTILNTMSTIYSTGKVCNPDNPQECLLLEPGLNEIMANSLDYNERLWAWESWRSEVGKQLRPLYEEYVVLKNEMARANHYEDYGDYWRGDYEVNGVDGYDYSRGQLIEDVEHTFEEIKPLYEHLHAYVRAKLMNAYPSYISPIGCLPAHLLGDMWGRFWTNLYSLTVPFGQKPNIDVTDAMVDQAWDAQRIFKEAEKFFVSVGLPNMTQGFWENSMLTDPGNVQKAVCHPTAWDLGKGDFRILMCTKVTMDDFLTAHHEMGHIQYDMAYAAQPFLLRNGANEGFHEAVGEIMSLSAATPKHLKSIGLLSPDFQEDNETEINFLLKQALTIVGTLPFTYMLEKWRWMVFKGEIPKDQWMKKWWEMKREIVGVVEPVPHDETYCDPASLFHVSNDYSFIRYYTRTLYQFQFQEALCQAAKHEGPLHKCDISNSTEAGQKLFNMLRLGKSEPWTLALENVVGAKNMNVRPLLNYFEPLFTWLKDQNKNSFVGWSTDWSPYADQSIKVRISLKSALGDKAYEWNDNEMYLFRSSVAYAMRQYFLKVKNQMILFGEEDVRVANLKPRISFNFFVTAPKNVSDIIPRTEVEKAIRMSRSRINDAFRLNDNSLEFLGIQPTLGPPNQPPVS", "assay": "biochemical"}, "Caspase 8": {"target": "Caspase 8 (Homo sapiens, UniProt Q14790)", "sequence (Q14790 217-479)": "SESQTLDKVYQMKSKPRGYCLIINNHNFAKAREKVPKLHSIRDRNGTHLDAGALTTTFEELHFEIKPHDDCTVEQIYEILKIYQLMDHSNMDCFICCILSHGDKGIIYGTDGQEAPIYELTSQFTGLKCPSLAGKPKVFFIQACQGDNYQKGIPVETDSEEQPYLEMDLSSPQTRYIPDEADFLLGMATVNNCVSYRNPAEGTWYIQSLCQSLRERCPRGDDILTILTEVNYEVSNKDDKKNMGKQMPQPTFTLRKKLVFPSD", "assay": "biochemical"}, "Cathepsin B": {"target": "Cathepsin B (Homo sapiens, UniProt P07858)", "assay": "biochemical"}, "Cathepsin L": {"target": "T2, Cathepsin L (Homo sapiens, UniProt P07711)", "T2 construct": "Human liver; from tissue; host or cells: human liver", "T2 sequence (P07711 114-333)": "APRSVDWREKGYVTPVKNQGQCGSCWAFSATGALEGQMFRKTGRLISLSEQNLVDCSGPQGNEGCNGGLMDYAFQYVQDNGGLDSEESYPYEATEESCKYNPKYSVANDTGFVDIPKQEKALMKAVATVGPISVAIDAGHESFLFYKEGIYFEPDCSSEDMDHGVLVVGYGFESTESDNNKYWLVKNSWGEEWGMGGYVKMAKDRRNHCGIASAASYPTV", "assay": "Protease selectivity panel: Cathepsin L", "format": "biochemical"}, "Elastase": {"target": "Elastase (Homo sapiens, UniProt P08246)", "sequence (P08246 30-267)": "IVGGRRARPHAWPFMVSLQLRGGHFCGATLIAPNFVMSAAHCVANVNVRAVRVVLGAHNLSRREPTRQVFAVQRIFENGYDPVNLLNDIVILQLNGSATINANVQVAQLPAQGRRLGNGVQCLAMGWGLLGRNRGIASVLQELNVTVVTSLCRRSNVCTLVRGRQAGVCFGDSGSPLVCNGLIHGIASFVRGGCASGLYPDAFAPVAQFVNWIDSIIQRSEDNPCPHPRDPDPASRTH", "assay": "biochemical"}, "Factor Xa": {"target": "Factor Xa (Homo sapiens, UniProt P00742)", "sequence (P00742 235-488)": "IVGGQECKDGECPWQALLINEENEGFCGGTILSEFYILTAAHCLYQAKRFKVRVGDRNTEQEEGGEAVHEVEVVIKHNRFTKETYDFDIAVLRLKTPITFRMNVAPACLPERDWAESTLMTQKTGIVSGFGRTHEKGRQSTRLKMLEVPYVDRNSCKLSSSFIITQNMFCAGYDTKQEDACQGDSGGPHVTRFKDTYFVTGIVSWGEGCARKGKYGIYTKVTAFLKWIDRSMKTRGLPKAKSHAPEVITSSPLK", "sequence (P00742 41-179)": "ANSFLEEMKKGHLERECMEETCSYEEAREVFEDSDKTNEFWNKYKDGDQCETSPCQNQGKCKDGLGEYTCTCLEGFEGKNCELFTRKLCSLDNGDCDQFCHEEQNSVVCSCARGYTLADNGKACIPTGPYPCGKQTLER", "assay": "biochemical"}, "Furin": {"target": "Furin (Homo sapiens, UniProt P09958)", "sequence (P09958 108-715)": "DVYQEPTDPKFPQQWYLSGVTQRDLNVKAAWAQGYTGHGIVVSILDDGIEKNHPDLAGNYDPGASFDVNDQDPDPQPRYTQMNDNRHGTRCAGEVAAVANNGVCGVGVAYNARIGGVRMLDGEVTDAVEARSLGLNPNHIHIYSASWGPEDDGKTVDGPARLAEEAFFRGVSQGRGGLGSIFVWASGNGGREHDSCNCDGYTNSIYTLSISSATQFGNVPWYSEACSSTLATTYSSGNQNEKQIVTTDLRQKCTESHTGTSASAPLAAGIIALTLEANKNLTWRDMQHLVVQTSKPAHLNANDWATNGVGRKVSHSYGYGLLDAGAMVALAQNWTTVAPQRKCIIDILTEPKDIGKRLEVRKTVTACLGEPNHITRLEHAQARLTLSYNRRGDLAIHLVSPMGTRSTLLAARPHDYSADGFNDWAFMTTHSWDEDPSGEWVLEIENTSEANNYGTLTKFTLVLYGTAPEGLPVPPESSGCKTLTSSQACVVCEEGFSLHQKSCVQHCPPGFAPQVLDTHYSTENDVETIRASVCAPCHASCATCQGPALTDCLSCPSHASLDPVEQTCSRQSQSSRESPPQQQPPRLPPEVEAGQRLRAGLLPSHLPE", "assay": "biochemical"}, "MMP 1": {"target": "MMP 1 (Homo sapiens, UniProt P03956)", "sequence (P03956 100-268)": "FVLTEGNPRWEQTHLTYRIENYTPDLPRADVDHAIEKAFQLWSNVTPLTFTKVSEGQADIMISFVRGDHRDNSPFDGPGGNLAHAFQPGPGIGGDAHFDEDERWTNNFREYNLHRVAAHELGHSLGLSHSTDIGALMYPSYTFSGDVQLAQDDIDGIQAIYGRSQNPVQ", "assay": "biochemical"}, "PLpro": {"target": "PLpro (Severe acute respiratory syndrome coronavirus 2, UniProt P0DTD1)", "assay": "Protease selectivity panel: PLpro", "format": "biochemical", "settings": "SARS-CoV-2 recombinant"}, "Thrombin a": {"target": "Thrombin a (Homo sapiens, UniProt P00734)", "assay": "biochemical"}, "TMPRSS2": {"target": "TMPRSS2 (Homo sapiens, UniProt O15393)", "sequence (O15393 106-492)": "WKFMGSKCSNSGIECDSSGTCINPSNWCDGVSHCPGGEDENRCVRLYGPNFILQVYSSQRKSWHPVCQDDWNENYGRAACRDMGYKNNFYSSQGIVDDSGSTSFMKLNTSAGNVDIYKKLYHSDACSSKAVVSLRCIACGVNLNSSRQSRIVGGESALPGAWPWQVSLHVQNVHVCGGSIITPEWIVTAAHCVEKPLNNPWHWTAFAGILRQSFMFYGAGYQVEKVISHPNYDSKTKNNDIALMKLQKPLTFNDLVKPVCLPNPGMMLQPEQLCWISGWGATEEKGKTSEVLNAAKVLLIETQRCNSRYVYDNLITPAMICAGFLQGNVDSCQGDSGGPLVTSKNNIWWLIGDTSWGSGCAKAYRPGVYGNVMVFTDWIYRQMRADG", "assay": "biochemical"}, "Trypsin": {"target": "Trypsin (Bos taurus, UniProt P00760)", "sequence (P00760 24-246)": "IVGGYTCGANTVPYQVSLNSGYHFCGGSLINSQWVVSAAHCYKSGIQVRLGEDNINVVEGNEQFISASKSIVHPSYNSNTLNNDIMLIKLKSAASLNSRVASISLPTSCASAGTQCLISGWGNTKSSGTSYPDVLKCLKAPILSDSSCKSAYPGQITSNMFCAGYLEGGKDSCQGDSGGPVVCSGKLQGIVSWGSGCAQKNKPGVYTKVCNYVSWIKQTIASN", "assay": "Protease selectivity panel: Trypsin", "format": "biochemical", "settings": "Bovine pancreas"}, "Urokinase": {"target": "Urokinase (Homo sapiens, UniProt P00749)", "assay": "biochemical"}, "SARS-CoV-2 [3]": {"tested_on": "SARS-CoV-2", "assay": "microbe, parasite or virus in culture", "format": "cell-based"}, "SARS-CoV-2 [4]": {"tested_on": "SARS-CoV-2", "assay": "microbe, parasite or virus in culture", "format": "cell-based", "settings": "Severe acute respiratory syndrome coronavirus 2, read-out: SARS-CoV-2 EC50"}, "[5]": {"tested_on": "SARS coronavirus (strain: Urbani)", "assay": "organism not typed", "format": "cell-based, SARS-CoV"}, "[6]": {"tested_on": "MERS Coronavirus (strain: EMC)", "assay": "microbe, parasite or virus in culture", "format": "cell-based, MERS-CoV"}, "[7]": {"tested_on": "Human coronavirus alpha (strain: 229E)", "assay": "organism not typed", "format": "cell-based, HCoV-229E"}, "[8]": {"tested_on": "Human coronavirus beta (strain: OC43)", "assay": "organism not typed", "format": "cell-based, HCoV-OC43", "settings": "Huh-7, read-out: EC50, human coronavirus OC43"}, "[9]": {"tested_on": "Influenza A H1N1 (strain: California/07/2009)", "assay": "microbe, parasite or virus in culture", "format": "cell-based"}, "[10]": {"settings": "2 mg/ml (3.5 mM) in water"}, "[11]": {"settings": "mouse, in vivo, po"}, "[12]": {"settings": "both, C57BL/6, mouse, in vivo"}, "SARS-CoV-2 [13]": {"tested_on": "SARS-CoV-2", "assay": "microbe, parasite or virus in culture", "settings": "Severe acute respiratory syndrome coronavirus 2, Caco-2, 72 h, read-out: SARS-CoV-2 Caco-2 EC90"}, "Cathepsin K": {"target": "Cathepsin K (Homo sapiens, UniProt P43235)", "sequence (P43235 115-329)": "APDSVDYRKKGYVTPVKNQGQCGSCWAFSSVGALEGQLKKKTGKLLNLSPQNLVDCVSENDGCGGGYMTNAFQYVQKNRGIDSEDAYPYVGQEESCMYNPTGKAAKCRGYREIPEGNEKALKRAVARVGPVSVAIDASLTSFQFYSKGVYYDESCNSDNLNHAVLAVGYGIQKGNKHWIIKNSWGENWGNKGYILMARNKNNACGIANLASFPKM", "assay": "Protease selectivity panel: Cathepsin K"}, "Cathepsin S": {"target": "Cathepsin S (Homo sapiens, UniProt P25774)", "sequence (P25774 115-331)": "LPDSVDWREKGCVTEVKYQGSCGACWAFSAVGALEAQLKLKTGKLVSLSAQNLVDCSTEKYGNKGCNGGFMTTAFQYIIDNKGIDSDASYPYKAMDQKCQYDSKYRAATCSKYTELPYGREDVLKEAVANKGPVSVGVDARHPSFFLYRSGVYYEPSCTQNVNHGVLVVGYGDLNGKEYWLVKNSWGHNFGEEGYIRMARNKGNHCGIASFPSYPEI", "assay": "Protease selectivity panel: Cathepsin S"}, "[14]": {"assay": "In vivo safety study of NK01-63 (body weight)", "settings": "C57BL/6 mice, 20 mg/kg IP or PO once per day, 14 days, vs vehicle"}},
  "note": "Values joined by “and” are separate entries in the source; they are usually repeats but may differ in a detail not shown here. Equal entries are not always repeated. “Also recorded” adds a separate entry of the source. Where two headings read alike, the source gives them in different places.",
  "data": [
    {"smiles": "CC(C)C[C@H](NC(=O)OCc1cccc(C(F)(F)F)c1)C(=O)N[C@@H](C[C@@H]1CCNC1=O)C(O)S(=O)(=O)O", "note": "(stereo partly drawn) [NK01-63]", "values": [
      {"measurement": "IC50", "setting": "SARS-CoV-2 3CL protease [1]; 20 nM protease", "value": 16, "unit": "nM"},
      {"measurement": "normalized activity, dose-response curve (Figure S16)", "setting": "SARS-CoV-2 3CL protease [1]; Concentration of inhibitor (nM) 0.19382", "value": "93.111 and 89.2676"},
      {"measurement": "normalized activity, dose-response curve (Figure S16)", "setting": "SARS-CoV-2 3CL protease [1]; Concentration of inhibitor (nM) 0.49485", "value": "89.4126 and 81.5809"},
      {"measurement": "normalized activity, dose-response curve (Figure S16)", "setting": "SARS-CoV-2 3CL protease [1]; Concentration of inhibitor (nM) 0.79588", "value": "77.0123 and 75.7796"},
      {"measurement": "normalized activity, dose-response curve (Figure S16)", "setting": "SARS-CoV-2 3CL protease [1]; Concentration of inhibitor (nM) 1.09691", "value": "63.0167 and 61.2038"},
      {"measurement": "normalized activity, dose-response curve (Figure S16)", "setting": "SARS-CoV-2 3CL protease [1]; Concentration of inhibitor (nM) 1.39794", "value": "43.8724 and 49.3111"},
      {"measurement": "normalized activity, dose-response curve (Figure S16)", "setting": "SARS-CoV-2 3CL protease [1]; Concentration of inhibitor (nM) 1.69897", "value": "23.8579 and 30.4568"},
      {"measurement": "normalized activity, dose-response curve (Figure S16)", "setting": "SARS-CoV-2 3CL protease [1]; Concentration of inhibitor (nM) 2", "value": "10.3698 and 13.7056"},
      {"measurement": "normalized activity, dose-response curve (Figure S16)", "setting": "SARS-CoV-2 3CL protease [1]; Concentration of inhibitor (nM) 2.30103", "value": "8.412 and 10.6599"},
      {"measurement": "normalized activity, dose-response curve (Figure S16)", "setting": "SARS-CoV-2 3CL protease [1]; Concentration of inhibitor (nM) 2.60206", "value": "5.004 and 8.702"},
      {"measurement": "normalized activity, dose-response curve (Figure S16)", "setting": "SARS-CoV-2 3CL protease [1]; Concentration of inhibitor (nM) -0.10721", "value": "91.5881 and 97.1719"},
      {"measurement": "normalized activity, dose-response curve (Figure S16)", "setting": "SARS-CoV-2 3CL protease [1]; Concentration of inhibitor (nM) -0.40824", "value": "100 and 96.1566"},
      {"measurement": "IC50", "setting": "SARS-CoV-2 3CL protease [1]; Supplementary Table 2", "value": 6, "unit": "nM"},
      {"measurement": "observed inactivation rate vs compound concentration (Figure S19, replicate values)", "setting": "SARS-CoV-2 3CL protease [2]", "value": "0.0289 and 0.04017 and 0.02561 and 0.0288 and 0.05998 and 0.02398 and 0.0512 and 0.02223 and 0.03571 and 0.0324 and 0.05689 and 0.02237 and 0.0081 and 0.01635 and 0.01687"},
      {"measurement": "kinact/KI", "setting": "SARS-CoV-2 3CL protease [2]; read-out: SARS-CoV-2 3CLpro kinact/KI", "value": 73300, "unit": "M⁻¹ s⁻¹"},
      {"measurement": "IC50", "setting": "ACE1", "value": "> 100", "unit": "µM"},
      {"measurement": "IC50", "setting": "ACE2", "value": "> 100", "unit": "µM"},
      {"measurement": "IC50", "setting": "Caspase 8", "value": 18, "unit": "µM"},
      {"measurement": "IC50", "setting": "Cathepsin B", "value": 1100, "unit": "nM"},
      {"measurement": "IC50", "setting": "Cathepsin L; Human liver, substrate 1 (Z-FR-AMC), […] Cathepsin L, read-out: IC50", "value": 6, "unit": "nM"},
      {"measurement": "IC50", "setting": "Cathepsin L; Human liver, substrate 2 (MCA-PLGL-Dap(Dnp)-AR-NH2), 0.5 nM Cathepsin L, read-out: IC50", "value": 170, "unit": "nM"},
      {"measurement": "IC50", "setting": "Cathepsin L; read-out: IC50 on human cathepsin L", "value": 6, "unit": "nM"},
      {"measurement": "IC50", "setting": "Elastase", "value": "> 100", "unit": "µM"},
      {"measurement": "IC50", "setting": "Factor Xa", "value": "> 100", "unit": "µM"},
      {"measurement": "IC50", "setting": "Furin", "value": "> 100", "unit": "µM"},
      {"measurement": "IC50", "setting": "MMP 1", "value": "> 100", "unit": "µM"},
      {"measurement": "IC50", "setting": "PLpro", "value": "> 100", "unit": "µM"},
      {"measurement": "IC50", "setting": "Thrombin a", "value": "> 100", "unit": "µM"},
      {"measurement": "IC50", "setting": "TMPRSS2", "value": "> 100", "unit": "µM"},
      {"measurement": "IC50", "setting": "Trypsin", "value": "> 100", "unit": "µM"},
      {"measurement": "IC50", "setting": "Urokinase", "value": "> 100", "unit": "µM"},
      {"measurement": "inhibition of SARS-CoV-2 (Figure s17b dose-response, replicate values)", "setting": "SARS-CoV-2 [3]", "value": "85.8805 and 70.4035 and 120.64 and 101.121 and 104.666 and 80.4107 and 75.7397 and 52.4625 and 52.0629 and 53.1789 and 26.443 and 29.7439 and 43.7589 and 41.2695 and 18.2065 and 24.2009 and 38.2936 and 12.6905 and -1.598 and 19.9884 and -12.0156"},
      {"measurement": "EC50", "setting": "SARS-CoV-2 [3]; Severe acute respiratory syndrome coronavirus 2, 24 h, read-out: SARS-CoV-2 Huh-7ACE2 EC50", "value": 6, "unit": "nM"},
      {"measurement": "EC50", "setting": "SARS-CoV-2 [4]", "value": 146, "unit": "nM"},
      {"measurement": "EC50", "setting": "[5]; Vero 76, read-out: SARS-CoV Vero 76 EC50", "value": "< 3000", "unit": "nM"},
      {"measurement": "EC50", "setting": "[5]; read-out: SARS-CoV Vero 76 EC50", "value": 2100, "unit": "nM"},
      {"measurement": "EC50", "setting": "[6]; Middle East respiratory syndrome-related coronavirus, Vero 76, read-out: MERS-CoV Vero 76 EC50", "value": "< 1000", "unit": "nM"},
      {"measurement": "EC50", "setting": "[6]; read-out: MERS-CoV Vero 76 EC50", "value": 820, "unit": "nM"},
      {"measurement": "EC50", "setting": "[7]; Huh-7, read-out: EC50, human coronavirus 229E", "value": "< 100", "unit": "nM"},
      {"measurement": "EC50", "setting": "[7]; Huh-7, read-out: HCoV-229E Huh-7 EC50", "value": 170, "unit": "nM"},
      {"measurement": "EC50", "setting": "[8]", "value": "< 100", "unit": "nM"},
      {"measurement": "effect on replication of Influenza H1N1 (in words)", "setting": "[9]", "value": "no effect was observed"},
      {"measurement": "EC50", "setting": "[9]; Influenza A virus, H1N1, MDCK, read-out: Influenza A (H1N1) MDCK EC50", "value": "> 100", "unit": "µM"},
      {"measurement": "appearance of dosing solution in water", "setting": "[10]", "value": "the solution was clear"},
      {"measurement": "Body weight relative to day 0 (Figure 6A)", "setting": "[11]", "value": 100},
      {"measurement": "concentration in plasma and lung as multiple of EC90", "setting": "[12]", "value": "> 100", "unit": "x EC90"},
      {"measurement": "CC50", "setting": "in vitro", "value": "> 100", "unit": "µM"},
      {"measurement": "EC90", "setting": "SARS-CoV-2 [13]", "value": 81, "unit": "nM"},
      {"measurement": "IC50", "setting": "Cathepsin K", "value": 40, "unit": "nM"},
      {"measurement": "IC50", "setting": "Cathepsin S", "value": 30, "unit": "nM"},
      {"measurement": "body weight change / in vivo toxicity", "setting": "[14]", "value": "no in vivo toxicity via either route of administration; also recorded: No significant change in body weight"}
    ]}
  ]
}
